Legend:
[1] = Incorporation of docetaxel into liposome; format: physicochemical; settings: docetaxel added after liposome preparation vs conventional process
Protocol: As provided herein, the sequence of the addition of docetaxel results in enhanced solubility of the docetaxel. The conventional method of incorporating a hydrophobic drug into liposome is by adding the drug to lipid before liposome preparation. See, e.g., Immordino, M. L. et al., Journal of Controlled Release, 2003, 91: 417-429. By the conventional process, the incorporation of the drug is only 0.3 to 0.7 mg/mL. When docetaxel is added after liposome preparation, the incorporation of docetaxel is increased from 0.3 mg/mL to 5 mg/mL, which is more than 10 fold increase in solubility of the drug in lipid alone.
In the conventional liposome preparation, the drug to lipid molar percent ratio is 4-6% with the incorporation of drug into liposome efficiency is only 56%. See Immordino, M. L. et al., Journal of Controlled Release, 2003, 91: 417-429.

[2] = Stability upon dilution or storage, by reverse phase HPLC; format: physicochemical; settings: for time docetaxel remained soluble and formulation stable upon dilution: RP-HPLC
Protocol: Docetaxel (5 mg) was added to 31 μL of oleic acid and mixed using a VORTEX®. Ethanolamine (6 μL) was subsequently added and mixed using a VORTEX®. After mixing, the sample was dispersed in 963 μL of water for injection. Docetaxel was soluble and the formulation clear at 5 mg/mL. Docetaxel remained soluble, and the formulation was stable, upon dilution (1:10 in 2.5% glycerol) up to 24 hours as analyzed by a reverse phase high performance liquid chromatography method.
(§1) Docetaxel (5.0 mg) was added to 1 mL of 0.05 M sodium oleate and mixed using a VORTEX®. Docetaxel was soluble and the formulation clear at 5.0 mg/mL. Docetaxel remained soluble, and the formulation was stable, upon dilution (1:10 in 2.5% glycerol) up to 24 hours as analyzed by a reverse phase high performance liquid chromatography method.
as §1, with “(2” for “(5.0”, “1” for “0.05”, “caprylate” for “oleate”, “by” for “using”, “2” for “5.0”, “(1:2” for “(1:10 in”
as §1, with “(7.0” for “(5.0”, “1” for “0.05”, “linoleate” for “oleate”, “7.0” for “5.0”, “(1:10” for “(1:10 in”
Docetaxel (5 mg) was added to 1 mL of pre-made liposome containing 2 mM sodium oleate and 6% soy phosphatidyl choline, 10% trehalose, pH adjusted to 5-7 using Acetic acid, mixed using a VORTEX®, and microfluidized using a Microfluidizer with 10 passes at 15,000 psi. Five additional passes with the Microfluidizer at 15,000 psi were made to incorporate all 5 mg of the drug into 1 mL of pre-made liposome. Docetaxel was soluble and the formulation was transparent at 5 mg/mL. Docetaxel remained soluble, and the formulation was stable, upon dilution (1:10 in D5W) up to 48 hours as analyzed by a reverse phase high performance liquid chromatography method.
Hydrophobic or lipophilic compounds can be solubilized directly in sodium (or any ion) salt of fatty acid dissolved in an organic solvent. The organic solvent is subsequently removed using rotary evaporation, spray drying, or any other pharmaceutically acceptable processes. The drug-sodium salt of fatty acid mixture is subsequently dispersed in water, isotonic glycerol, or any pharmaceutically acceptable isotonic solution to achieve a desired concentration of the solubilized compound. For example, docetaxel (5 mg/mL) was dissolved in 100 mM sodium oleate in 100% ethanol. Ethanol was completely evaporated using rotary evaporation at 20° C. The docetaxel-sodium oleate was reconstituted with Water For Injection (“WFI”) or 2.5% glycerol to provide 5 mg/mL, 10 mg/mL, or 20 mg/mL concentration of docetaxel.
50 μl of Docetaxel in ethanol (100 mg/mL) was added to 1 mL of pre-made liposome containing 2 mM sodium oleate and 6% soy phosphatidyl choline, 10% trehalose and pH adjusted to 5-7 using Acetic acid, mixed using a VORTEX® and microfluidized using a Microfluidizer with 10 passes at 15,000 psi. Docetaxel was soluble and the formulation is transparent at 5 mg/mL. Docetaxel remained soluble, and the formulation was stable, upon dilution (1:10 in D5W) up to 48 hours as analyzed by a reverse phase high performance liquid chromatography method. […] The lyophilized product is reconstituted with water for injection at 5 mg, 10, or 20 mg/ml, concentration, essentially free of organic solvent.

SMILES: CC(=O)O[C@@]12CO[C@@H]1C[C@H](O)[C@@]1(C)C(=O)[C@H](O)C3=C(C)[C@@H](OC(=O)[C@H](O)[C@@H](NC(=O)OC(C)(C)C)c4ccccc4)C[C@@](O)([C@@H](OC(=O)c4ccccc4)[C@H]21)C3(C)C [Docetaxel, docetaxel]
- increase in solubility of the drug over lipid alone [1]: more than 10 fold
- time docetaxel remained soluble and formulation stable upon dilution ([2]; Example 6 oleic acid formulation, dilution 1:10 in 2.5% glycerol): up to 24 hours
- time docetaxel remained soluble and formulation stable upon dilution ([2]; Example 7 sodium oleate formulation, dilution 1:10 in 2.5% glycerol): up to 24 hours
- time docetaxel remained soluble and formulation stable upon dilution ([2]; Example 8 sodium caprylate formulation, dilution 1:2 2.5% glycerol): up to 24 hours
- time docetaxel remained soluble and formulation stable upon dilution ([2]; Example 9 sodium linoleate formulation, dilution 1:10 2.5% glycerol): up to 24 hours
- time docetaxel remained soluble and formulation stable upon dilution ([2]; Example 10 oleate liposome formulation, dilution 1:10 in D5W): up to 48 hours
- stability of the lyophilized formulation ([2]; Example 10 oleate liposome formulation): stable for more than a year
- time reconstituted docetaxel remained in solution ([2]; Example 11: docetaxel-sodium oleate reconstituted with WFI or 2.5% glycerol to 5, 10 or 20 mg/mL): remained in solution for 2 hours, 4 hours, 6 hours, 8 hours or 24 hours
- time docetaxel remained soluble and formulation stable upon dilution ([2]; Example 12 nanosome-oleate formulation, dilution 1:10 in D5W): up to 48 hours
- stability of the lyophilized formulation ([2]; Example 12 nanosome-oleate formulation): stable for more than a year

From patent US9655846B2, “Methods for the preparation of liposomes comprising drugs” (priority 2009, dated 2017)
